From US20120101169A1, “METHODS OF PROVIDING ANTICOAGULATION EFFECTS IN SUBJECTS” (Penwest Pharmaceuticals Co., priority 2010, published 2012)
Where two headings read alike, the source gives them in different places. Marks after values point to notes of the source that are not given here.

Legend:
[1] = Food-effect and regimen pharmacokinetics, single 3-g daily ATQ dose (Example 5 Part 1); format: in vivo, human; conditions: for Cmax / AUC(0-inf) / Vd/F / half-life / Tmax: male, human, plasma, oral, 3 g; for Vd/F: read-out: Vz/F
Experimental: (§1) The study was conducted in 2 parts. Part 1 was conducted in healthy male subjects only while Part 2 was conducted in healthy male and female subjects. The intent of this study part was to optimize the dosage regimen and diet for the multiple-dose safety and tolerance Part 2 of the study. All plasma ATQ concentrations were determined using a GLP validated bioanalytical method. ATQ was administered as an oral solution in oil (0.49 g/mL). The placebo solution consisted of olive oil alone.
The dose of 3-g ATQ was selected for Part 1 as it most likely represented the high end of the exposure spectrum selected for the subsequent tolerance trial. For Part 1, serial blood samples for the measurement of the plasma levels of ATQ were collected prior to and following each oral dose administered on Day 1 through 36 hours following the morning dose on Day 1 (or 24 hours post-evening dose).

[2] = Multiple ascending dose pharmacokinetics of ATQ (Example 5 Part 2); format: in vivo, human; conditions: for Cmax / AUC: both sexes, human, plasma, oral; for AUC: read-out: AUC(0-tau, 24)
Experimental: as §1
Part 2 was conducted as a multiple-dose dose-escalation design. […] Dose administration was subsequently switched to a BID regimen administered for 14 days.
Part 2 was conducted as a multiple-dose dose-escalation design in male and female subjects. None of the subjects who participated in Part 1 of the study were eligible to participate in Part 2. A total of 32 subjects were enrolled in Part 2. Twenty (20) subjects received ATQ or placebo for one week in a single-blind, randomized, placebo-controlled design: Cohort 1 […] low dose (1 g/day as 0.33 g TID) and Cohort 2 […] midrange dose (2 g/day as 0.67 g TID). In each cohort, 8 subjects received ATQ and 2 subjects received placebo under fed conditions. An additional 12 subjects were subsequently enrolled into 2 additional cohorts of 6 subjects each. The 12 subjects were randomized to receive one of the two following ATQ doses: Cohort 3 (N=6) low dose (0.5 g BID) and Cohort 4 (N=6) intermediate dose (0.75 g BID) administered for 14 days with a standard meal. All subjects participating in Cohorts 3 and 4 received ATQ; there was no placebo arm.
For Part 2, serial blood samples for the measurement of the plasma levels of ATQ were collected in Cohorts 1 and 2 as part of a 3 times daily regimen prior to and over the first 6-hour dosing interval following administration of the first dose on Day 1, prior to the morning dose on Days 3, 5, and 6, over the 6-hour and 12-hour dosing intervals following the afternoon and evening dose, respectively, and up to 48 hours after the final (morning) dose on Day 7.
In Cohorts 3 and 4, serial blood samples for the measurement of the plasma levels of ATQ were collected for the twice-daily regimen prior to and over the 12-hour dosing interval following the first dose administration on Day 1, prior to the morning dose on Days 4, 7, 10, 13, and 14, and over the 12-hour dosing interval after the final (morning) dose on Day 14. Multiple-dose PK data over the dose range of 1.0-g/day (BID and TID), 1.5-g/day (BID), and 2.0-g/day (TID) were generated in this study.
Part 2 multiple-dose results are provided for Day 7 (Cohorts 1 and 2) or Day 14 unless otherwise indicated. Parameters designated with the term 24 refer to pharmacokinetic parameters derived for a 24-hour TID or BID dosing period.

[3] = system: protein C; assay: Extended coagulation biomarker panel: protein C; format: in vivo, human; conditions: Part 2, 0.67 g TID, Day 4
From the text: (§2) In Part 1 the extended panel was collected at screening and at check-in (Day −1) and Day 2 of each period unless the study results warranted a different sampling schedule. In Part 2, the same of the exploratory coagulation biomarkers were collected at screening, check-in, Day 4, and Day 8 in Cohorts 1 and 2, or at check-in, Day 7, and Day 14 in Cohorts 3 and 4 with the following exception: in Cohorts 3 and 4, platelet function was collected at check-in only or when medically indicated.

[4] = system: antithrombin (AT); assay: Extended coagulation biomarker panel: antithrombin; set-up: species or system human; conditions: in vivo
From the text: as §2

[5] = 3-g BID, high-fat meal, mean, N = 6
[6] = 3-g BID, standard meal, mean, N = 6
[7] = 3-g TID, high-fat meal, mean, N = 5
[8] = 3-g TID, standard meal, mean, N = 6
[9] = 1-g/day (0.33 g TID), mean, N = 8
[10] = 1-g/day (0.5 g BID), morning dose data, N = 5
[11] = 1.5-g/day (0.75 g BID), morning dose data, N = 6
[12] = 2-g/day (0.67 g TID), mean, N = 7

Structure (SMILES): CC1=C(C)C(=O)C(CC[C@](C)(O)CCC[C@H](C)CCC[C@H](C)CCCC(C)C)=C(C)C1=O [ATQ, alpha-tocopherolquinone]
- CLpo [1, 5]: 21.4 L/h
- CLpo [1, 6]: 22.0 L/h
- CLpo [1, 7]: 18.2 L/h
- CLpo [1, 8]: 18.1 L/h
- Overall exposure (AUC) BID versus TID ([1]; 3-g dose as 2×1.5-g every 12 hours or 3×1.0-g every 6 hours): similar
- Cmax ([1]; 3-g BID (2×1.5 g 12 h apart), high-fat meal, baseline-adjusted, mean, N = 6, read-out: Cmax): 13400 ng/mL
- Cmax ([1]; 3-g BID (2×1.5 g 12 h apart), standard meal, baseline-adjusted, mean, N = 6, read-out: Cmax): 15300 ng/mL
- AUC(0-inf) ([1]; 3-g BID, high-fat meal, baseline-adjusted, mean, N = 6): 152 µg·h/mL
- Vd/F [1, 5]: 132 L
- half-life ([1]; 3-g BID, high-fat meal, mean, N = 6, read-out: t1/2 (converted)): 4.2 h
- Tmax ([1]; 3-g BID, high-fat meal, median, N = 6, read-out: Tmax): 10.5 h
- AUC(0-inf) ([1]; 3-g BID, standard meal, baseline-adjusted, mean, N = 6): 157 µg·h/mL
- Vd/F [1, 6]: 143 L
- half-life ([1]; 3-g BID, standard meal, mean, N = 6, read-out: t1/2 (converted)): 4.34 h
- Tmax ([1]; 3-g BID, standard meal, median, N = 6, read-out: Tmax): 6 h
- Cmax ([1]; 3-g TID (3×1.0 g 6 h apart), high-fat meal, baseline-adjusted, mean, N = 5, read-out: Cmax): 14200 ng/mL
- Cmax ([1]; 3-g TID (3×1.0 g 6 h apart), standard meal, baseline-adjusted, mean, N = 6, read-out: Cmax): 15000 ng/mL
- AUC(0-inf) ([1]; 3-g TID, high-fat meal, baseline-adjusted, mean, N = 5): 178 µg·h/mL
- Vd/F [1, 7]: 122 L
- half-life ([1]; 3-g TID, high-fat meal, mean, N = 5, read-out: t1/2 (converted)): 4.88 h
- Tmax ([1]; 3-g TID, high-fat meal, median, N = 5, read-out: Tmax): 17.5 h
- AUC(0-inf) ([1]; 3-g TID, standard meal, baseline-adjusted, mean, N = 6): 169 µg·h/mL
- Vd/F [1, 8]: 139 L
- half-life ([1]; 3-g TID, standard meal, mean, N = 6, read-out: t1/2 (converted)): 5.37 h
- Tmax ([1]; 3-g TID, standard meal, median, N = 6, read-out: Tmax): 12.7 h
- Cmax ([1]; single 3-g daily dose, across treatments, read-out: mean Cmax range): 13400 to 15300 ng/mL
- half-life ([1]; single 3-g daily dose, across treatments, read-out: mean t1/2 values (range across treatments)): 4.2 to 5.37 h
- Tmax ([1]; single 3-g daily dose, across treatments, read-out: median Tmax (range across treatments)): 6 to 17.5 h
- ATQ exposure (Cmax and AUC) high-fat versus standard meal ([1]; single 3-g daily dose): no difference
- Time for trough concentrations to reach steady state ([2]; 0.33 g TID): ≤ 3 days
- Time for trough concentrations to reach steady state ([2]; 0.5 g BID): ≤ 4 days
- Time for trough concentrations to reach steady state ([2]; 0.67 g TID): ≤ 3 days
- Time for trough concentrations to reach steady state ([2]; 0.75 g BID): 13 days
- Cmin ([2]; 1-g/day (0.33 g TID), Day 7, mean, N = 8): 583 ng/mL
- CLpo, 24 ([2]; 1-g/day (0.33 g TID), daily dose divided by mean AUC(0-tau, 24)): 24.2 [c] L/h
- Cavg, 24 h [2, 9]: 1730 ng/mL
- Fluct24 h [2, 9]: 189%
- TimeHgh(0-24) (time above the pharmacologically relevant concentration of 0.5 μg/mL) ([2]; 1-g/day (0.33 g TID), median, N = 8): 23.80 h
- TimeHgh(0-24) (time above the pharmacologically relevant concentration of 0.5 μg/mL) ([2]; 1-g/day (0.5 g BID), 2 times the 0-12 hour morning dose value, N = 5): 19.68 [e] h
- Cmin ([2]; 1-g/day (0.5 g BID), Day 14, mean, N = 5): 308 ng/mL
- CLpo, 24 ([2]; 1-g/day (0.5 g BID), morning dose data, Day 14, N = 5): 57.5 L/h
- Cavg, 24 h [2, 10]: 1040 ng/mL
- Fluct24 h [2, 10]: 145%
- Estimated daily AUC higher with TID than BID ([2]; 1-g/day: 0.33 g TID versus 0.5 g BID): approximately 66%
- TimeHgh(0-24) (time above the pharmacologically relevant concentration of 0.5 μg/mL) ([2]; 1.5-g/day (0.75 g BID), 2 times the 0-12 hour morning dose value, N = 6): 21.84 [e] h
- Cmin ([2]; 1.5-g/day (0.75 g BID), Day 14, mean, N = 6): 443 ng/mL
- CLpo, 24 ([2]; 1.5-g/day (0.75 g BID), morning dose data, Day 14, N = 6): 53.5 L/h
- Cavg, 24 h [2, 11]: 1380 ng/mL
- Fluct24 h [2, 11]: 147%
- Cmin ([2]; 2-g/day (0.67 g TID), Day 7, mean, N = 7): 1220 ng/mL
- CLpo, 24 ([2]; 2-g/day (0.67 g TID), daily dose divided by mean AUC(0-tau, 24)): 18.5 [c] L/h
- Cavg, 24 h [2, 12]: 4480 ng/mL
- Fluct24 h [2, 12]: 177%
- TimeHgh(0-24) (time above the pharmacologically relevant concentration of 0.5 μg/mL) ([2]; 2-g/day (0.67 g TID), median, N = 7): 23.87 h
- Accumulation of Cmax ([2]; BID administration): did not accumulate
- Cmax ([2]; 0.33 g, 1-g/day (0.33 g TID), Day 7, N = 8, read-out: Cmax last dose): 2400 ng/mL
- Cmax ([2]; 0.33 g, 1-g/day (0.33 g TID), highest Cmax of the 3 serial TID profiles, Day 6 lunch, N = 8, read-out: Cmax): 3530 ng/mL
- Cmax ([2]; 0.5 g, 1-g/day (0.5 g BID), Day 14, N = 5, read-out: Cmax last dose): 1890 ng/mL
- Cmax ([2]; 0.5 g, 1-g/day (0.5 g BID), Day 14 morning dose, N = 5, read-out: Cmax): 1890 ng/mL
- Cmax ([2]; 0.67 g, 2-g/day (0.67 g TID), Day 7, N = 7, read-out: Cmax last dose): 4280 ng/mL
- Cmax ([2]; 0.67 g, 2-g/day (0.67 g TID), highest Cmax of the 3 serial TID profiles, Day 6 dinner, N = 7, read-out: Cmax): 9000 ng/mL
- AUC ([2]; 0.75 g, 1.5-g/day (0.75 g BID), 2 times the 0-12 hour morning dose value, N = 6): 33.2 µg·h/mL
- Cmax ([2]; 0.75 g, 1.5-g/day (0.75 g BID), Day 14, N = 6, read-out: Cmax last dose): 2540 ng/mL
- Cmax ([2]; 0.75 g, 1.5-g/day (0.75 g BID), Day 14 morning dose, N = 6, read-out: Cmax): 2540 ng/mL
- AUC ([2]; 1 g/day, 1-g/day (0.33 g TID), mean, N = 8): 41.4 µg·h/mL
- AUC ([2]; 1 g/day, 1-g/day (0.5 g BID), 2 times the 0-12 hour morning dose value, N = 5): 25 µg·h/mL
- AUC ([2]; 2 g/day, 2-g/day (0.67 g TID), mean, N = 7): 108 µg·h/mL
- Maximum concentrations higher with TID than BID ([2]; following the final morning dose, similar doses): approximately 27%
- Dose proportionality of exposure following multiple-dose administration ([2]; within TID (2-fold) or BID (1.5-fold) dose range): approximately proportional increases
- Protein C activity [3]: 109%
- Effect on the activity of AT [4]: did not appear to affect
